System: HIV-1 BaL (R5)
Test: Anti-HIV activity in infected TZM-bl cells (luciferase), pre- and post-infection treatment
Format: cell-based, Human Immunodeficiency Virus Type 1 (HIV-1)

Structure (SMILES): COc1c(Cl)cc(C[C@@H](C(=O)O)N(C)C)cc1Cl [TODC-2M]
- IC50 (Human immunodeficiency virus 1, BAL, TZM-bl, 48 h, HIV-1 BaL (R5), TZM-bl cells, luciferase): 67.4 µM
- inhibition at 18 µM (Human immunodeficiency virus 1, BAL, 18 µM, TZM-bl cells, read-out: Percentage inhibition of HIV-1 BaL replication): 38%
- inhibition at 37 µM (Human immunodeficiency virus 1, BAL, 37 µM, TZM-bl cells, read-out: Percentage inhibition of HIV-1 BaL replication): 46.4%
- inhibition at 75 µM (Human immunodeficiency virus 1, BAL, 75 µM, TZM-bl cells, read-out: Percentage inhibition of HIV-1 BaL replication): 60.5%
- inhibition at 150 µM (Human immunodeficiency virus 1, BAL, 150 µM, TZM-bl cells, read-out: Percentage inhibition of HIV-1 BaL replication): 61.1%
- SI (selectivity index against HIV-1 BaL (CC50 and IC50 of Table 3)): >4.45
